This is an account of results in patent publication US20250127774A1, “COMPOUNDS FOR LABELLING NUCLEIC ACID AND USES THEREOF” (THE ROYAL INSTITUTION FOR THE ADVANCEMENT OF …, priority 2022, published 2025).

pIC50: −log10 of the molar value. Where a name gives a salt, the structure may show the parent alone. Read-outs that look alike come from different tables or passages of the source.

Series [1] in a line: Photophysical properties of AO-495-tet-py before and after reaction with 5-norbornene-2 methanol. It is filed as physicochemical. To be noted: for φ: Rhodamine 6G standard; for λmax(Fluor.): excitation at 488 nm. The procedure: The absorbance and fluorescence intensity (excitation at 488 nm) of AO-495-TET-py in different solvents (water, PBS and acetonitrile) was measured in a quartz cuvette (light path 1 cm) using a SpectraMax M5 plate reader (Molecular Devices, Sunnyvale, CA, USA). For AO-495-tet-py, samples for photophysical characterization were prepared directly from stock solution (10 mM in DMSO) by gradient dilution. For reaction of AO-495-tet-py with 5-norbornene-2 methanol, 20 μL AO-495-tet-py stock solution (in DMSO) was mixed with 2 μL 5-norbornene-2 methanol (80× excess) in room temperature for 24 h to ensure full conversion. 3 μL of the reaction mixture was diluted in to the indicated solvent to make a […] solution for following photophysical characterization. Rhodamine 6G in ethanol was used as fluorescence standard (φ=0.94).

A short description of series [2]: Photophysical measurements (quantum yield) of PINK and PINK-VdU-ox. The format is physicochemical. To be noted: excitation 488 nm, Rhodamine 6G standard; PINK in aqueous and aprotic solvents, 6 depending on the solvent used. The procedure:
PINK (4) undergoes a highly fluorogenic and regioselective IEDDA reaction with VdU (5) to give “PINK-VdU-ox” (6) as a single isomer in a 76% isolated yield after 7d at 60° C. (Scheme 1). The slow rate of this non-templated reaction (Kapp=0.01 M^−1 s^−1, FIG. 5) is due to the combination of an unstrained terminal alkene and unactivated tetrazine.^[49] Over the course of the reaction, a ˜100-fold increase in fluorescence was observed (FIG. 3, c). With a quantum yield (φF)<0.2%, PINK (4) is essentially non-fluorescent in both aqueous and aprotic solvents (FIG. 6).
Highly viscous solvents, including glycerol and polyethylene glycol (PEG 200) induced higher fluorescence of 6, likely by restricting bond rotation and thus suppressing formation of a non-emissive, twisted intramolecular charge transfer (TICT) state.^[50]
Photophysical Measurements. Stock solutions (1-10 mM) of investigated compounds were prepared in DMSO and stored at −20° C. DMSO concentrations were less than 1% after dilution into the respective solvent/aqueous buffer. Measurements were collected on a SpectraMax M5 plate reader (Molecular Devices, Sunnyvale, CA, USA) in 1 cm path-length quartz cuvettes. Quantum yields were obtained by excitation at 488 nm using Rhodamine 6G ((=0.94) in EtOH (n=1.3624) as a fluorescent standard.^[1] Quantum yields were calculated using the equation I: […]

The test system of series [3] is Hela cells. Put plainly: Pulse-chase labeling with EdU. The format is cell-based. The conditions noted are these: 20 μM VdU 16 h, 1 μM PINK 4 h, 10 μM EdU 4 h. How it is done: To investigate the potential impact of VdU-PINK labeling on subsequent DNA synthesis, a pulse-chase experiment was performed with 5-ethynyl-2′-deoxyuridine (EdU) (FIG. 14, a). Hela cells were grown in cell media containing 20 μM VdU for 16 h, aspirated, treated with 1 μM PINK for 4 h, aspirated and treated with 10 μM EdU for 4 h. After fixation and DNA denaturation, cells were stained with AF488-azide (488 nm laser; emission 495-540 nm), and total cellular DNA was counterstained with Hoechst 33342 (405 nm laser; emission 410-480 nm). The “No VdU” cells were incubated with 1 μM PINK but not VdU. PINK+ and EdU+ “double positive” cells were observed as having co-localized nuclear staining. […] Therefore, VdU and PINK were used to track DNA synthesis and cellular division using live-cell, time-lapsed imaging. For optimal live-cell visualization, cells were incubated with 100 µM VdU for 23 h and subsequently labeled with 1 μM PINK for 4 h prior to imaging, allowing for the recording of full mitotic cycles over 2.5 hours (FIG. 14, b). Live cell images were acquired using a confocal microscope equipped with a stage-top incubator at 37° C. and at 5% CO2.
Pulse-Chase Labeling. In each well of a 24-well plate, one 10 mm diameter cover slide was placed. Hela cells were seeded at 1.2×10^5 cells per mL and allowed to settle overnight (22 h). […]

Series [4] concerns Jurkat cells. The series is described as follows: Resazurin single toxicity assay. The format is cell-based. The conditions noted are these: Homo sapiens, compound alone. How it is done: (§1) Resazurin assays were carried out to test the effectiveness of VdU, VdA and PINK alone in MV4-11 and Jurkat. The resazurin reduction assay is a colorimetric assay which allows to determine a cell's viability based on its metabolic activities.^26 When the cells are alive, the resazurin gets reduced by NADH into its resorufin form by cellular respiration, which is pink and highly fluorescent.^26 When the cells are dead or their metabolisms are impaired, the resazurin remains in its oxidized form, which is blue and has low fluorescence.^26 The cells can then be imaged using a spectrometer to determine how viable they are after each treatment.
(§2) Resazurin Single toxicity assay. MV4-11 and Jurkat cells were seeded in 96-well plates at a density of 20 000 cells/well, in triplicates. The cells were treated with each nucleoside (VdU/VdA) alone diluted in fresh media in 1:4 serial dilutions (˜0.01% DMSO) at concentrations of 1000-0 μM. The cells were treated with PINK alone diluted in fresh media in 1:2 serial dilutions (˜1% DMSO) at concentration of 100-0 μM. The cells were then incubated for 24 h and 72h. 10 μL of 870 μM resazurin was added per well, and incubated for 2-5 hours. After incubation, the fluorescence intensity at 590 nm (excitation=560 nm) was measured using a SpectraMax M5 plate reader.
A general note: The colour change of resazurin is a common sign of viable cells or microbes.

Series [5] relates to MV4-11 cells. The series is described as follows: Resazurin single toxicity assay. The format is cell-based. The conditions noted are these: Homo sapiens, compound alone. The procedure:
as §1, §2

Series [6] deals with MV4-11 and Jurkat. Put plainly: Resazurin single toxicity assay, summary over both cell lines. It is filed as cell-based. The conditions noted are these: Homo sapiens, after 24 h and 72h, read-out: IC50 summarised over both cell lines. How it is done: as §1
Overall, VdU presented itself as a good candidate for the combination therapy with PINK due to its low toxicity in the two leukemia cell lines.
as §2

Series [7] concerns Jurkat cells. Put plainly: Resazurin combination toxicity assay. It is filed as cell-based. To be noted: Homo sapiens. How it is done:
(§3) From the single toxicity experiment, it was determined that the optimal subtoxic concentration of PINK to be used for the combination toxicity assays would be 1 μM. To test how effective the vinyl-nucleosides (VdU/VdA) in combination with PINK are at killing the cells compared to the vinyl-nucleosides alone, another resazurin reduction assay was carried out.
(§4) To determine if it is possible to treat the leukemia cells with the vinyl-nucleosides and PINK simultaneously, instead of adding them sequentially, another resazurin reduction assay using the same concentrations of each compound as in the previous combination experiment was carried out, where instead the vinyl-nucleosides and PINK were added on the same day instead of on two consecutive days.
(§5) Resazurin Combination toxicity assays. MV4-11, MOLM-13 and Jurkat cells were seeded in 96-well plates at a density of 20 000 cells/well, 25 000 cells/well and 30 000 cells/well, respectively, in triplicates. For the sequential addition, the cells were first treated with the nucleosides (VdU/VdA) diluted in fresh media in 1:4 serial dilutions (˜0.01% DMSO) at concentrations of 500-0 μM, and incubated overnight. 24h post nucleoside addition, the cells were treated with 1 μM PINK diluted in fresh media (˜1% DMSO), and incubated for 24-72h. The cells were treated with resazurin, incubated and measured, as described above. For the simultaneous addition, the cells were treated with nucleosides and PINK on the same day at the same concentrations as describes above, and incubated for 24-72h.

The subject of series [8] is MV4-11 cells. Put plainly: Resazurin combination toxicity assay. The format is cell-based. The conditions noted are these: Homo sapiens. The procedure:
as §3, §4, §5

The test system of series [9] is MOLM-13 cells. Put plainly: Resazurin combination toxicity assay. It is filed as cell-based, human. To be noted: variable VdU/VdA alone or with 1 μM PINK added 24 h post nucleoside addition, read-out: IC50 value (48 h) for sequential addition. How it is done: as §3, §5
Series [10] has as its system MOLM-13 cells. The series is described as follows: Cell counting assay (Trypan Blue). It is filed as cell-based, human. To be noted: MOLM-13, 5 μM nucleoside, 1 μM PINK. How it is done: To confirm the cytotoxicity results obtained from the resazurin assays, a cell counting assay was conducted using Trypan Blue. It is an azo dye allows to discriminate between viable cells and dead cells, since dead cells will take in the dye, while viable cells will remain white. 28 From the resazurin assays, and after some optimization based on cell sensitivity to the vinyl-nucleosides, it was determined that […] and 5 μM of vinyl-nucleosides alone and in combination with 1 μM of PINK were two interesting concentrations to explore in Jurkat, MV4-11, and MOLM-13 cells. Cells were incubated with 5 μM or 10 μM of each nucleoside overnight (Day 0), and 1 μM of PINK was added for the combinations and PINK alone 24h post nucleoside incubation (Day 1). The cells were counted every 24h.
Cell Counting Assay. Jurkat, MV4-11 and MOLM-13 cells were seeded in 12-well plates at a density of 500 000 cells/mL, 175 000 cells/mL and 375 000 cells/mL, respectively, in duplicates. The cells were incubated overnight in fresh media containing 10 μM (Jurkat) or 5 μM (MV4-11 and MOLM-13) of each nucleoside (˜0.01% DMSO). 24h post nucleoside addition, 1 μM of PINK (˜0.01% DMSO) were added to the respective wells and incubated for 24 h. The cells were counted using a cell counter (BIO RAD TC20) to determine the percentage of viable cells and the cell concentration. The cells were counted every 24h using Trypan Blue in a 1:1 ratio.

The mark [11] stands for this setting: 48 h, variable VdU/VdA alone or with 1 μM PINK added on the same day, read-out: IC50 value (48 h) for simultaneous addition.
The mark [12] stands for this setting: variable VdU/VdA alone or with 1 μM PINK added 24 h post nucleoside addition, read-out: IC50 value (48 h) for sequential addition.

Take `CN(C)c1ccc2cc3ccc(N(C)C)cc3[n+](CCCc3nnc(-c4ccccn4)nn3)c2c1` [AO-495-tet-py, (10-(6-(pyridin-2-yl)-1,2,4,5-tetrazin-3-yl)propyl)-3,6-bis(dimethylamino)acridinium trifluoroacetate)]: in series [1] (MeCN), the “λmax(Abs)” value came out at 498 nm, the φ amounted to 0.0075 and the “λmax(Fluor.)” value came out at 525 nm. Moreover, in series [1] (PBS), the “λmax(Abs)” value came out at 500 nm, the φ worked out at 0.0148 and the “λmax(Fluor.)” value turned out to be 525 nm. For the same compound, in [1] (Water), the “λmax(Abs)” value is given as 500 nm, the φ came to 0.0063 and the “λmax(Fluor.)” value is recorded as 525 nm.

For `Cc1cc(-c2cn([C@H]3C[C@H](O)[C@@H](CO)O3)c(=O)[nH]c2=O)c(-c2ccc3cc4ccc(N(C)C)cc4nc3c2)nn1` [PINK-VdU-ox], the “quantum yield (φF)” value in [2] is listed as 3.5-19%. For the same compound, in [3], the “impact of VdU-PINK labeling on subsequent DNA synthesis / cell cycle” value is recorded as “did not cause cell cycle arrest”.

In the case of `C=Cc1cn([C@H]2C[C@H](O)[C@@H](CO)O2)c2ncnc(N)c12` [VdA, 7-vinyl-7-deaza-2′-deoxyadenosine], the negative logarithm of the IC50 (pIC50) in [4] (24 h incubation, read-out: IC50 value (24 h)) was 4.17; in series [4] (72 h incubation, read-out: IC50 value (72 h)), 4.34; in series [5] (MV4-11, 24 h incubation, read-out: IC50 value (24 h)), 4.49; in [5] (MV4-11, 72 h incubation, read-out: IC50 value (72 h)), 4.24; in series [6], around 4.30; in [7] (setting [11]), 4.14. The pIC50 is 4.34 in series [7] (setting [12]); 4.43 in series [8] (setting [11]); 4.60 in series [8] (setting [12]); 5.52 in [9] (Homo sapiens, MOLM-13, MOLM-13); 5.59 in [9] (MOLM-13). For the same compound, the “cell concentration (cell growth)” value in [10] was “seem to inhibit cell growth”.

For orientation: pIC50 means −log10 of the IC50, conventionally taken in molar units.
